According to patent US20050267182A1, “Urea derivatives as FLT-3 modulators” (Ambit Biosciences Corporation, priority 2003, published 2005):

How the values were obtained:
[1] = molecular target: T1, FLT3 (Homo sapiens, UniProt P36888); assay: Binding constant (Kd) measurement, phage-displayed kinase competition binding assay; conditions: for Binding Assay: FLT3(DKIN): FLT3(DKIN) construct; for Binding Assay: FLT3(JMminus): FLT3(JMminus) construct
T1 construct: FLT3(DKIN); made in house
T1 sequence (P36888 610-943 limits assumed): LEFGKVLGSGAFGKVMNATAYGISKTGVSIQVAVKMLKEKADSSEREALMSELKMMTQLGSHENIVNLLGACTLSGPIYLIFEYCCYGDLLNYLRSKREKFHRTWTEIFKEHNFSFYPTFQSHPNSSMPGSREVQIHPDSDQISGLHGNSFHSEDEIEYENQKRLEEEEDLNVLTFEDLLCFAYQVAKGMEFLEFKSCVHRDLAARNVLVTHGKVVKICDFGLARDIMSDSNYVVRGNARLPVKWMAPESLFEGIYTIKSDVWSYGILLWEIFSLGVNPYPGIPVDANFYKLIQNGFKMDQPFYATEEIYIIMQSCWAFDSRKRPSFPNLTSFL
Description: Binding Constant (Kd) Measurements for Small-Molecule-Kinase Interactions
The term “ND” represents non-determined values.

[2] = tested on: MV4,11 cells; assay: FLT3 assay using MV4,11 cells (cellular proliferation, MTS); type: cell-based, human; conditions: cell assay code CS0001; for IC50: Homo sapiens, MV4-11
Method: The ability of FLT3 kinase inhibitors to inhibit cellular proliferation was also examined. MV4:11 was a cell line derived from a patient with acute myelogenous leukemia.
FLT3 Assay Using MV4,11 Cells
MV4,11 cells were grown in an incubator @ 37° C. in 5% CO2 in Medium 2 (RPMI, 10% FBS, 4 mM glutamine, Penn/Strep). The cells were counted daily and the cell density was kept between 1e5 and 8e5 cells/ml.
Day One: Enough cells were harvested for experiments to be conducted in 50 ml conical tubes. The harvested cells were spun at 500 g for 5 min at 4° C., the supernatant was then aspirated and the cells were resuspended in the starting volume of 1×PBS. The cells were again spun at 500 g for 5 min at 4° C. and the supernatant again aspirated. The cells were then resuspended in medium 3 (DMEM w/ glut, 10% FBS, Penn/Strep) to a density of 4e5 cells/ml and incubated (37° C. in 5% CO2 O/N.
Day Two: The cells were counted and enough medium 3 was added to decrease density to 2e5 cells/ml. 50 ul (10,000 cells) was aliquoted into each well of a 96 well optical plate using multichannel pipetman. The compound plate was then set up by aliquoting 3 μl of negative control (DMSO) into column 1 of a 96 well 300 ul polypropylene plate, aliquoting 3 μt of positive control (10 mM AB20121) into column 12 of plate, and aliquoting 3 μl of appropriate compounds from serial dilutions into columns 2-11. To each well, 150 μl of Medium 3 was added and 50 μl of compound/medium mixture from compound plate into rows of optical plate in duplicate. The cells were then incubated @ 37° C. in 5% CO2 for 3 days.
Day Five: MTS was thawed in a H2O bath. 20 μl of MTS was added to each well of optical plate and the cells were incubated (37° C. in 5% CO2 for 2 hours. The plate was then placed on a plate shaker for 30 seconds on high speed.

`CC(C)(C)c1cc(NC(=O)Nc2ccc(NC(=O)c3ccc(SC(F)(F)F)cc3)cc2)no1` [Compound N33] was tested, and the “Binding Assay: FLT3(DKIN)” value [1] was “+ + +” and the IC50 [2] was > 10 µM.
`COc1cc(OC)nc(Oc2cccnc2C(=O)Nc2ccc(NC(=O)Nc3cc(C(C)(C)C)on3)cc2)n1` [Compound N56] was tested, and the “Binding Assay: FLT3(DKIN)” value [1] was “+ + + +” and the “Cell Assay: CS0001:IC50” value [2] was “+ + +”.
For `Cc1cc(C)c(C(=O)Nc2ccc(NC(=O)Nc3cc(C(C)(C)C)on3)cc2)c(C)c1` [Compound N31], the “Binding Assay: FLT3(DKIN)” value [1] was “+ + +” and the “Cell Assay: CS0001:IC50” value [2] was “+ +”.
`CC(C)(C)c1cc(NC(=O)Nc2ccc(C(=O)Nc3ccc(F)cc3F)cc2)no1` [Compound N153] was tested, and the “Binding Assay: FLT3(DKIN)” value [1] was “+ + + +” and the “Cell Assay: CS0001:IC50” value [2] was “+ + +”.
`CC(C)(C)c1cc(NC(=O)Nc2ccncc2)no1` [Compound A53] was tested, and the “Binding Assay: FLT3(DKIN)” value [1] was “+ +” and the “Cell Assay: CS0001:IC50” value [2] was “+ +”.
In the case of `CC(C)(C)c1cc(NC(=O)Nc2ccc(OCc3ccc4nonc4c3)cc2)no1` [Compound G55], the “Binding Assay: FLT3(DKIN)” value [1] is reported as “+ + + +” and the “Cell Assay: CS0001:IC50” value [2] is reported as “+ + +”.
For `CC(C)(C)c1cc(NC(=O)Nc2ccc(OCCN3CCOCC3)cc2)no1` [Compound G40], the “Binding Assay: FLT3(DKIN)” value [1] was “+ + +” and the “Cell Assay: CS0001:IC50” value [2] was “+ +”.
`CC(C)(C)c1cc(NC(=O)Nc2ccc(NC(=O)c3cccc(SC(F)F)c3)cc2)no1` [Compound N25] was tested, and the “Binding Assay: FLT3(DKIN)” value [1] was “+ + + +” and the “Cell Assay: CS0001:IC50” value [2] was “+ + +”.
`CC(C)(C)c1cc(NC(=O)Nc2ccc(NC(=O)c3ncc[nH]3)cc2)no1` [Compound N13] was tested, and the “Binding Assay: FLT3(DKIN)” value [1] was “+ + + +” and the “Cell Assay: CS0001:IC50” value [2] was “+ + + +”.
For `CC(C)(C)c1cc(NC(=O)Nc2ccc(NC(=O)c3ccc(OC(F)(F)F)cc3)cc2)no1` [Compound N30], the “Binding Assay: FLT3(DKIN)” value [1] was “+ +” and the “Cell Assay: CS0001:IC50” value [2] was “+ +”.
With `CC(C)(C)c1cc(NC(=O)Nc2ccc(NC(=O)c3c(F)cccc3F)cc2)no1` [Compound N37] the “Binding Assay: FLT3(DKIN)” value [1] was “+ + +” and the “Cell Assay: CS0001:IC50” value [2] was “+ +”.
`CNC(=O)c1ccc(NC(=O)Nc2cc(C(C)(C)C)on2)cc1` [Compound N85] was tested, and the “Binding Assay: FLT3(DKIN)” value [1] was “+ + + +” and the “Cell Assay: CS0001:IC50” value [2] was “+ + +”.
For `CC(C)(C)c1cc(NC(=O)Nc2ccc(NC(=O)c3nnsc3Sc3ccc(Cl)cc3)cc2)no1` [Compound N71], the “Binding Assay: FLT3(JMminus)” value [1] was “+ + +” and the “Cell Assay: CS0001:IC50” value [2] was “+ +”.
`CC(C)(C)c1cc(NC(=O)Nc2ccc(NC(=O)c3cc(Cl)cc(Cl)c3)cc2)no1` [Compound N29] was tested, and the “Binding Assay: FLT3(DKIN)” value [1] was “+ + +” and the “Cell Assay: CS0001:IC50” value [2] was “+ + +”.
With `CC(C)(C)c1cc(NC(=O)Nc2ccc(NC(=O)c3cnc4cc(C(F)(F)F)ccc4c3O)cc2)no1` [Compound N146] the “Binding Assay: FLT3(DKIN)” value [1] was “+ + +” and the “Cell Assay: CS0001:IC50” value [2] was “+ + +”.
In the case of `CC(C)(C)c1cc(NC(=O)Nc2ccc(NC(=O)c3ccc(-n4cc(-c5ccncn5)cn4)cc3)cc2)no1` [Compound N76], the “Binding Assay: FLT3(JMminus)” value [1] is reported as “+ + +” and the “Cell Assay: CS0001:IC50” value [2] is reported as “+ + +”.
In the case of `COc1cc(NC(=O)CCC(=O)N2CCNC(=O)CC2)ccc1NC(=O)Nc1cc(C(C)(C)C)on1` [Compound N172], the “Binding Assay: FLT3(JMminus)” value [1] is reported as “+ + +” and the “Cell Assay: CS0001:IC50” value [2] is reported as “+ +”.
In the case of `Cc1ccc(NC(=O)c2ccc(NC(=O)Nc3cc(C(C)(C)C)on3)cc2)cc1` [Compound N84], the “Binding Assay: FLT3(DKIN)” value [1] is reported as “+ + + +” and the “Cell Assay: CS0001:IC50” value [2] is reported as “+ + + +”.
With `CC(C)(C)c1cc(NC(=O)Nc2ccc(NC(=O)C3CCNCC3)cc2)no1` [Compound N150] the “Binding Assay: FLT3(DKIN)” value [1] was “+ + +” and the IC50 [2] was > 10 µM.
For `CC(C)(C)c1cc(NC(=O)Nc2ccc(OCc3c(F)cccc3F)cc2)no1` [Compound G21], the “Binding Assay: FLT3(DKIN)” value [1] was “+ + + +” and the “Cell Assay: CS0001:IC50” value [2] was “+ + + +”.
`CC(C)(C)c1cc(NC(=O)Nc2ccc(OCc3ccccc3-c3ccccc3)cc2)no1` [Compound G8] was tested, and the “Binding Assay: FLT3(DKIN)” value [1] was “+ + +” and the “Cell Assay: CS0001:IC50” value [2] was “+ +”.
With `Cn1cc(C(=O)Nc2ccc(NC(=O)Nc3cc(C(C)(C)C)on3)cc2)c(C(F)(F)F)n1` [Compound N20] the “Binding Assay: FLT3(DKIN)” value [1] was “+ + + +” and the “Cell Assay: CS0001:IC50” value [2] was “+ + +”.
In the case of `CC(C)(C)c1cc(NC(=O)Nc2ccc(NC(=O)c3cc4cccnc4nc3C(F)(F)F)cc2)no1` [Compound N61], the “Binding Assay: FLT3(DKIN)” value [1] is reported as “+ + +” and the “Cell Assay: CS0001:IC50” value [2] is reported as “+ + +”.
For `COc1cc(NC(=O)c2cn3nc(Cl)ccc3n2)ccc1NC(=O)Nc1cc(C(C)(C)C)on1` [Compound N171], the “Binding Assay: FLT3(JMminus)” value [1] was “+ +” and the “Cell Assay: CS0001:IC50” value [2] was “+ + +”.
`CC(C)(C)c1cc(C(=O)Nc2ccc(NC(=O)Nc3cc(C(C)(C)C)on3)cc2)n(-c2ccccc2)n1` [Compound N78] was tested, and the “Binding Assay: FLT3(JMminus)” value [1] was “+ + +” and the “Cell Assay: CS0001:IC50” value [2] was “+ + +”.
For `CC(C)(C)c1cc(NC(=O)Nc2ccc(NC(=O)c3cnn(-c4cccc(Cl)c4)c3Br)cc2)no1` [Compound N45], the “Binding Assay: FLT3(DKIN)” value [1] was “+ + + +” and the “Cell Assay: CS0001:IC50” value [2] was “+ + +”.
`CC(C)(C)c1cc(NC(=O)Nc2ccc(NC(=O)c3nnsc3Sc3ccc(C(F)(F)F)cc3)cc2)no1` [Compound N179] was tested, and the “Binding Assay: FLT3(JMminus)” value [1] was “+ + +” and the “Cell Assay: CS0001:IC50” value [2] was “+ + +”.
`CC(C)(C)c1cc(NC(=O)Nc2ccc(OCCN3CCC(O)CC3)cc2)no1` [Compound G48] was tested, and the “Binding Assay: FLT3(DKIN)” value [1] was “+ + +” and the “Cell Assay: CS0001:IC50” value [2] was “+ +”.
For `CC(=O)c1c[nH]c(C(=O)Nc2ccc(NC(=O)Nc3cc(C(C)(C)C)on3)cc2)c1` [Compound N43], the “Binding Assay: FLT3(DKIN)” value [1] was “+ + + +” and the “Cell Assay: CS0001:IC50” value [2] was “+ + +”.
With `CC(C)(C)c1cc(NC(=O)Nc2ccc(NC(=O)c3ccc(Br)cc3)cc2)no1` [Compound N27] the “Binding Assay: FLT3(DKIN)” value [1] was “+ +” and the “Cell Assay: CS0001:IC50” value [2] was “+ +”.
`CC1CCCN(CCOc2ccc(NC(=O)Nc3cc(C(C)(C)C)on3)cc2)C1` (centres unmarked) [Compound G44] was tested, and the “Binding Assay: FLT3(DKIN)” value [1] was “+ +” and the “Cell Assay: CS0001:IC50” value [2] was “+ +”.
`CC(C)(C)c1cc(NC(=O)Nc2ccc(OCc3ccc(C(=O)c4ccccc4)cc3)cc2)no1` [Compound G9] was tested, and the “Binding Assay: FLT3(DKIN)” value [1] was “+ + + +” and the “Cell Assay: CS0001:IC50” value [2] was “+ + +”.
`Cc1nc(N)cc(Nc2ccc(NC(=O)Nc3cc(C(C)(C)C)on3)cc2)n1` [Compound O10] was tested, and the “Binding Assay: FLT3(DKIN)” value [1] was “+ + + +” and the “Cell Assay: CS0001:IC50” value [2] was “+ + +”.
With `C=C/C(=C\C=C\Cl)NC(=O)Nc1ccc(C(=O)OCCOC)cc1` [Compound Z54] the “Binding Assay: FLT3(DKIN)” value [1] was “+ +” and the “Cell Assay: CS0001:IC50” value [2] was “+ +”.
In the case of `CC(C)(C)c1cc(NC(=O)Nc2ccc(NC(=O)Cc3noc4ccccc34)cc2)no1` [Compound N80], the “Binding Assay: FLT3(JMminus)” value [1] is reported as “+ + +” and the “Cell Assay: CS0001:IC50” value [2] is reported as “+ + +”.
`CC(C)(C)c1cc(NC(=O)Nc2ccc(C(=O)Nc3ccccc3)cc2)no1` [Compound N90] was tested, and the “Binding Assay: FLT3(DKIN)” value [1] was “+ + + +” and the “Cell Assay: CS0001:IC50” value [2] was “+ + +”.
With `CC1CN(CCOc2ccc(NC(=O)Nc3cc(C(C)(C)C)on3)cc2)CC(C)O1` (centres unmarked) [Compound G42] the “Binding Assay: FLT3(DKIN)” value [1] was “+ + +” and the “Cell Assay: CS0001:IC50” value [2] was “+ +”.
`CC(C)Oc1ccc(NC(=O)Nc2cc(C(C)(C)C)no2)cc1` [Compound G33] was tested, and the “Binding Assay: FLT3(DKIN)” value [1] was “+ + + +” and the “Cell Assay: CS0001:IC50” value [2] was “+ + +”.
In the case of `Cc1[nH]c(C(=O)Nc2ccc(NC(=O)Nc3cc(C(C)(C)C)on3)cc2)c(C)c1CCC(=O)O` [Compound N39], the “Binding Assay: FLT3(DKIN)” value [1] is reported as “+ + + +” and the “Cell Assay: CS0001:IC50” value [2] is reported as “+ +”.
For `Cc1cccnc1-c1noc(-c2ccc(NC(=O)Nc3cc(C(C)(C)C)on3)cc2)n1` [Compound P4], the “Binding Assay: FLT3(DKIN)” value [1] was “+ + + +” and the “Cell Assay: CS0001:IC50” value [2] was “+ + + +”.
